Experimental findings from PMC5895817, “A Bowman-Birk type chymotrypsin inhibitor peptide from the amphibian, Hylarana erythraea” (Scientific Reports, 2018) are described below.

“Also recorded” adds a separate entry of the source.

In one data set the target is T1, human 20 S proteasome (Homo sapiens, UniProt P28074).
T1 construct: purchased Biochem, Boston, MA, USA
Briefly: Human 20 S proteasome inhibition (chymotrypsin-like activity). The class given is biochemical. The following applies: chymotrypsin-like activity of human 20 S proteasome (7 nM working solution); substrate Suc-Leu-Leu-Val-Tyr-AMC; 50 mM HEPES, 0.035% SDS, pH 7.5; pre-incubation 15 min, 37 °C; Morrison equation; duplicate, repeated three times. The protocol: (§1) Phe-Pro-Arg-AMC, Succinyl-Ala-Ala-Pro-Phe-AMC and Suc-Leu-Leu-Val-Tyr-AMC (Abcam, Cambridge, UK) were used as substrates for trypsin, chymotrypsin and human 20 S proteasome respectively. 10 μl trypsin/chymotrypsin working solution (1 µg/ml) were added to the wells of a micro-titre plate containing 180 μl substrate and various inhibitor solutions. 10 μl human 20 S proteasome (Biochem, Boston, MA, USA) working solution (7 nM) in 50 mM HEPES buffer containing 0.035% SDS, pH 7.5 was added to the well of a micro-titre plate containing 180 μl substrate solution and each of various inhibitor solution. Each determination was carried out in duplicate. The rate of hydrolysis of the trypsin/chymotrypsin substrate was monitored subsequently and continuously, at 37 °C, by measuring the rate of increase of fluorescence in a FLUOstar OPTIMA multi-well plate reader (BMG Labtech, Ortenberg, Germany). For the 20 S proteasome, the rate of hydrolysis of the substrate was monitored after a pre-incubation for 15 min, at 37 °C. […] Each assay was repeated three times.

Another data set deals with horse erythrocytes. Briefly: Haemolysis activity test. The class given is cell-based. The settings on record: 2% suspension in PBS, 1–512 μM, 37 °C, 4 h, absorbance 550 nm, 5 replicates, three independent experiments. The protocol: Completely washed horse erythrocyte (TCS Biosciences Ltd., Buckingham, UK) suspension was prepared using phosphate-buffered saline (PBS). A series of peptide solutions were incubated with a 2% suspension of red blood cells at final concentrations of 1–512 μM at 37 °C for 4 h. After the incubation, 200 μl of each supernatant was transferred into a 96-well plate and the absorbance at 550 nm was measured with a Synergy HT plate reader (BioTek Instruments, Inc., Winooski, VT, USA). The BioTek’s Gen5^TM software was used to analyse the result. (Biolise BioTek EL808, Winooski, VT, USA). All the peptide concentrations and controls had 5 replicates in single 96-well plate and three independent experiments were performed.

In another data set the target is T2, trypsin (Bos taurus, UniProt P00760).
T2 construct: gene PRSS1
T2 sequence (P00760 24-246): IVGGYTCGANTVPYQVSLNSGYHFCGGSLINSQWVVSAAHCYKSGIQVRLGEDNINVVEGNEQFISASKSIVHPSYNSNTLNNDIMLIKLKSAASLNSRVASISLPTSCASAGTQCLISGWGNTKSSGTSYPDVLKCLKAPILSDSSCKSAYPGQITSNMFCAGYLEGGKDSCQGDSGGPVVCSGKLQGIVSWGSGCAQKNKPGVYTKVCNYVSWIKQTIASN
Briefly: Trypsin/chymotrypsin inhibition assay (Morrison): trypsin. The data set is classed as biochemical. The settings on record: substrate Phe-Pro-Arg-AMC, 37 °C, fluorescence, Morrison equation, each determination in duplicate, assay repeated three times. The procedure:
as §1

The target in the next data set is chymotrypsin (Bos taurus, UniProt P00766). Briefly: Trypsin/chymotrypsin inhibition assay (Morrison): chymotrypsin. The class given is biochemical. The procedure:
as §1

The subject of the next data set is HMEC-1. Briefly: MTT cell viability, normal cell line HMEC-1. The settings on record: 24 h, 5 replicates, three independent experiments. The class given is cell-based. The procedure:
The cancer cell line H157 (ATCC-CRL-5802, ATCC, Teddington, Middlesex, UK) and PC-3 (ATCC-CRL-1435, ATCC, Teddington, Middlesex, UK) were cultured in RPMI-1640 culture medium (Invitrogen, Paisley, UK) containing 10% FBS and 1% Penicillin-Streptomycin. MCF-7 (ATCC-HTB-22, ATCC, Teddington, Middlesex, UK) was cultured in DMEM culture medium (Invitrogen, Paisley, UK) containing 10% FBS and 1% Penicillin-Streptomycin. The normal cell line HMEC-1 (ATCC-CRL-3243, ATCC, Teddington, Middlesex, UK) was cultured in MCDB131 medium (Gibco, Paisley, UK) containing 10% FBS (foetal bovine serum, obtained from Sigma-Aldrich, St. Louis, MO, USA), 1% Penicillin-Streptomycin (Invitrogen, Paisley, UK), epidermal growth factor (10 ng/mL), hydrocortisone (1 μg/mL, obtained from Sigma-Aldrich, St. Louis, MO, USA) and glutamine (10 mM). Cells were seeded into a 96-well plate and incubated for 24 h (37 °C, 5% CO2) followed by starvation using serum-free medium. Sample solutions were loaded on this plate which was further incubated for 24 h. The 3-(4,5-dimethylthiazol-2-yl)-2,5-diphenyltetrazolium bromide (MTT) solution (5 mg/ml, 10 μl/well) was utilized to form the formazan after a 4 h incubation. Cell-produced-formazan was dissolved in DMSO (100 μl/well). The absorbance was recorded by using an ELx808^TM Absorbance Microplate Reader at 570 nm (BioTek Instruments, Inc., Winooski, VT, USA). […]

For the compound `CC[C@H](C)[C@H](NC(=O)[C@@H]1CSSC[C@H](NC(=O)CNC(=O)[C@H](CCCNC(=N)N)NC(=O)[C@H](CC(C)C)NC(=O)[C@@H](NC(=O)[C@@H](N)[C@@H](C)O)C(C)C)C(=O)N[C@@H](Cc2c[nH]c3ccccc23)C(=O)N[C@@H]([C@@H](C)O)C(=O)N[C@@H](Cc2ccccc2)C(=O)N[C@@H](CO)C(=O)N[C@@H](Cc2ccccc2)C(=O)N2CCC[C@H]2C(=O)N2CCC[C@H]2C(=O)N[C@@H](CCCCN)C(=O)N2CCC[C@H]2C(=O)N1)C(N)=O` [HECI, TVLRGCWTFSFPPKPCI-NH2], at human 20 S proteasome, the affinity corresponds to a Ki of 8.55 ± 1.84 µM.
`CC[C@H](C)[C@H](NC(=O)[C@@H]1CSSC[C@H](NC(=O)CNC(=O)[C@H](CCCNC(=N)N)NC(=O)[C@H](CC(C)C)NC(=O)[C@@H](NC(=O)[C@@H](N)[C@@H](C)O)C(C)C)C(=O)N[C@@H](Cc2c[nH]c3ccccc23)C(=O)N[C@@H]([C@@H](C)O)C(=O)N[C@@H](CCCCN)C(=O)N[C@@H](CO)C(=O)N[C@@H](Cc2ccccc2)C(=O)N2CCC[C@H]2C(=O)N2CCC[C@H]2C(=O)N[C@@H](CCCCN)C(=O)N2CCC[C@H]2C(=O)N1)C(N)=O` [K^9-HECI, TVLRGCWTKSFPPKPCI-NH2]: the haemolysis result in the data set on horse erythrocytes is “low degree of haemolytic activity; also recorded: low degree of haemolysis”. The values for the inhibition constant Ki on trypsin and at chymotrypsin were 790 ± 40 nM and 13.9 ± 1.09 µM, respectively. Besides, in the data set with HMEC-1, the “cytotoxicity / growth inhibition on normal cells HMEC-1” value is “low degree of cytotoxicity; also recorded: low degree of inhibition; also recorded: only slight cytotoxicity on HMEC-1”.
